Columns and labels:
Type in all cases: in vivo
[1] = tested on: Spodoptera litura; experiment: Spodoptera litura diet incorporation method; conditions: third instar larvae, dead and moribund combined, 96 h after release
Method in brief: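 Compound milled to <2 μm average particle size in surfactant, dispersed in water (500 ppm stock dispersion), then mixed into semi-synthetic diet at ~50° C. One starved third-instar larva per diet cell, 25° C, 70% RH; percent mortality (dead plus moribund) scored at 96 h.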

[2] = tested on: Helicoverpa armigera; experiment: Helicoverpa armigera diet incorporation method; conditions: third instar larvae, dead and moribund combined, 96 h after release
Method in brief: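 500 ppm stock of compound milled with surfactant and zirconia beads to average particle size below 2 μm, dispersed in DM water, diluted as needed, and mixed into semi-synthetic diet at about 50° C. Single starved third-instar larvae per cell, held at 25° C., 70% RH; dead plus moribund larvae scored as percent mortality at 96 h.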

[3] = tested on: Plutella xylostella; experiment: whole plant or invertebrate; conditions: foliar, cabbage leaf dip, second instar larvae, dead and moribund combined, 72 h after release
Method in brief: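 Compounds milled with zirconia beads into surfactant dispersion (500 ppm stock), diluted in 0.01% Triton-X. Cabbage leaves dipped 10 s, shade-dried 20 min; one second-instar larva per cell, 25 °C, 70% RH. Mortality (dead plus moribund) scored at 72 h.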

Measured: mortality at 300 ppm

C=CCNC(=O)c1c(NC(=O)c2cc(Br)nn2-c2ncccc2Cl)c(C)cc2ccnn12 [Compound 6, N-allyl-6-(3-bromo-1-(3-chloropyridin-2-yl)-1H-pyrazole-5-carboxamido)-5-methylpyrazolo[1,5-a]pyridine-7-carboxamide]
> 70%: all assays above

COCCNC(=O)c1c(NC(=O)c2cc(Br)nn2-c2ncccc2Cl)c(C)cc2ccnn12 [Compound 7, 6-(3-bromo-1-(3-chloropyridin-2-yl)-1H-pyrazole-5-carboxamido)-N-(2-methoxyethyl)-5-methylpyrazolo[1,5-a]pyridine-7-carboxamide]
> 70%: all assays above

Cc1cc2ccnn2c(C(=O)NC(C)(C)C)c1NC(=O)c1cc(Br)nn1-c1ncccc1Cl [Compound 8, 6-(3-bromo-1-(3-chloropyridin-2-yl)-1H-pyrazole-5-carboxamido)-N-(tert-butyl)-5-methylpyrazolo[1,5-a]pyridine-7-carboxamide]
> 70%: all assays above

CNC(=O)c1c(NC(=O)c2cc(OCC(F)(F)F)nn2-c2ncccc2Cl)c(C)cc2ccnn12 [Compound 9, 6-(1-(3-chloropyridin-2-yl)-3-(2,2,2-trifluoroethoxy)-1H-pyrazole-5-carboxamido)-N,5-dimethylpyrazolo[1,5-a]pyridine-7-carboxamide]
> 70%: all assays above

CCNC(=O)c1c(NC(=O)c2cc(OCC(F)(F)F)nn2-c2ncccc2Cl)c(C)cc2ccnn12 [Compound 10, 6-(1-(3-chloropyridin-2-yl)-3-(2,2,2-trifluoroethoxy)-1H-pyrazole-5-carboxamido)-N-ethyl-5-methylpyrazolo[1,5-a]pyridine-7-carboxamide]
> 70%: all assays above

Cc1cc2ccnn2c(C(=O)NC(C)C)c1NC(=O)c1cc(OCC(F)(F)F)nn1-c1ncccc1Cl [Compound 12, 6-(1-(3-chloropyridin-2-yl)-3-(2,2,2-trifluoroethoxy)-1H-pyrazole-5-carboxamido)-N-isopropyl-5-methylpyrazolo[1,5-a]pyridine-7-carboxamide]
> 70%: all assays above

Cc1cc2ccnn2c(C(=O)NC2CC2)c1NC(=O)c1cc(OCC(F)(F)F)nn1-c1ncccc1Cl [Compound 13, 6-(1-(3-chloropyridin-2-yl)-3-(2,2,2-trifluoroethoxy)-1H-pyrazole-5-carboxamido)-N-cyclopropyl-5-methylpyrazolo[1,5-a]pyridine-7-carboxamide]
> 70%: all assays above

Cc1cc2ccnn2c(C(=O)NCC2CC2)c1NC(=O)c1cc(OCC(F)(F)F)nn1-c1ncccc1Cl [Compound 14, 6-(1-(3-chloropyridin-2-yl)-3-(2,2,2-trifluoroethoxy)-1H-pyrazole-5-carboxamido)-N-(cyclopropylmethyl)-5-methylpyrazolo[1,5-a]pyridine-7-carboxamide]
> 70%: all assays above

Cc1cc2ccnn2c(C(=O)NCC#N)c1NC(=O)c1cc(OCC(F)(F)F)nn1-c1ncccc1Cl [Compound 15, 6-(1-(3-chloropyridin-2-yl)-3-(2,2,2-trifluoroethoxy)-1H-pyrazole-5-carboxamido)-N-(cyanomethyl)-5-methylpyrazolo[1,5-a]pyridine-7-carboxamide]
> 70%: all assays above

CONC(=O)c1c(NC(=O)c2cc(OCC(F)(F)F)nn2-c2ncccc2Cl)c(C)cc2ccnn12 [Compound 16, 6-(1-(3-chloropyridin-2-yl)-3-(2,2,2-trifluoroethoxy)-1H-pyrazole-5-carboxamido)-N-methoxy-5-methylpyrazolo[1,5-a]pyridine-7-carboxamide]
> 70%: all assays above

Cc1cc2ccnn2c(C(=O)NC(C)(C)C)c1NC(=O)c1cc(OCC(F)(F)F)nn1-c1ncccc1Cl [Compound 19, N-(tert-butyl)-6-(1-(3-chloropyridin-2-yl)-3-(2,2,2-trifluoroethoxy)-1H-pyrazole-5-carboxamido)-5-methylpyrazolo[1,5-a]pyridine-7-carboxamide]
> 70%: all assays above

C=CCNC(=O)c1c(NC(=O)c2cc(OCC(F)(F)F)nn2-c2ncccc2Cl)c(C)cc2ccnn12 [Compound 20, N-allyl-6-(1-(3-chloropyridin-2-yl)-3-(2,2,2-trifluoroethoxy)-1H-pyrazole-5-carboxamido)-5-methylpyrazolo[1,5-a]pyridine-7-carboxamide]
> 70%: all assays above

CCCNC(=O)c1c(NC(=O)c2cc(Br)nn2-c2ncccc2Cl)c(C)cc2ccnn12 [Compound 21, 6-(3-bromo-1-(3-chloropyridin-2-yl)-1H-pyrazole-5-carboxamido)-5-methyl-N-propylpyrazolo[1,5-a]pyridine-7-carboxamide]
> 70%: all assays above

Cc1cc2ccnn2c(C(=O)NCCC#N)c1NC(=O)c1cc(Br)nn1-c1ncccc1Cl [Compound 22, 6-(3-bromo-1-(3-chloropyridin-2-yl)-1H-pyrazole-5-carboxamido)-N-(2-cyanoethyl)-5-methylpyrazolo[1,5-a]pyridine-7-carboxamide]
> 70%: all assays above

CONC(=O)c1c(NC(=O)c2cc(Br)nn2-c2ncccc2Cl)c(C)cc2ccnn12 [Compound 24, 6-(3-bromo-1-(3-chloropyridin-2-yl)-1H-pyrazole-5-carboxamido)-N-methoxy-5-methylpyrazolo[1,5-a]pyridine-7-carboxamide]
> 70%: all assays above

CNC(=O)c1c(NC(=O)c2cc(OC)nn2-c2ncccc2Cl)c(C)cc2ccnn12 [Compound 25, 6-(1-(3-chloropyridin-2-yl)-3-methoxy-1H-pyrazole-5-carboxamido)-N,5-dimethylpyrazolo[1,5-a]pyridine-7-carboxamide]
> 70%: all assays above

COc1cc(C(=O)Nc2c(C)cc3ccnn3c2C(=O)NC2CC2)n(-c2ncccc2Cl)n1 [Compound 26, 6-(1-(3-chloropyridin-2-yl)-3-methoxy-1H-pyrazole-5-carboxamido)-N-cyclopropyl-5-methylpyrazolo[1,5-a]pyridine-7-carboxamide]
> 70%: all assays above

COc1cc(C(=O)Nc2c(C)cc3ccnn3c2C(=O)NCC2CC2)n(-c2ncccc2Cl)n1 [Compound 27, 6-(1-(3-chloropyridin-2-yl)-3-methoxy-1H-pyrazole-5-carboxamido)-N-(cyclopropylmethyl)-5-methylpyrazolo[1,5-a]pyridine-7-carboxamide]
> 70%: all assays above

Cc1cc2ccnn2c(C(=O)NCC#N)c1NC(=O)c1cc(Br)nn1-c1ncccc1Cl [Compound 28, 6-(3-bromo-1-(3-chloropyridin-2-yl)-1H-pyrazole-5-carboxamido)-N-(cyanomethyl)-5-methylpyrazolo[1,5-a]pyridine-7-carboxamide]
> 70%: all assays above

CCCNC(=O)c1c(NC(=O)c2cc(OC)nn2-c2ncccc2Cl)c(C)cc2ccnn12 [Compound 29, 6-(1-(3-chloropyridin-2-yl)-3-methoxy-1H-pyrazole-5-carboxamido)-5-methyl-N-propylpyrazolo[1,5-a]pyridine-7-carboxamide]
> 70%: all assays above

COc1cc(C(=O)Nc2c(C)cc3ccnn3c2C(=O)NC(C)(C)C)n(-c2ncccc2Cl)n1 [Compound 30, N-(tert-butyl)-6-(1-(3-chloropyridin-2-yl)-3-methoxy-1H-pyrazole-5-carboxamido)-5-methylpyrazolo[1,5-a]pyridine-7-carboxamide]
> 70%: all assays above

CCNC(=O)c1c(NC(=O)c2cc(OC)nn2-c2ncccc2Cl)c(C)cc2ccnn12 [Compound 31, 6-(1-(3-chloropyridin-2-yl)-3-methoxy-1H-pyrazole-5-carboxamido)-N-ethyl-5-methylpyrazolo[1,5-a]pyridine-7-carboxamide]
> 70%: all assays above

COc1cc(C(=O)Nc2c(C)cc3ccnn3c2C(=O)NC(C)C)n(-c2ncccc2Cl)n1 [Compound 32, 6-(1-(3-chloropyridin-2-yl)-3-methoxy-1H-pyrazole-5-carboxamido)-N-isopropyl-5-methylpyrazolo[1,5-a]pyridine-7-carboxamide]
> 70%: all assays above

COCCNC(=O)c1c(NC(=O)c2cc(OC)nn2-c2ncccc2Cl)c(C)cc2ccnn12 [Compound 33, 6-(1-(3-chloropyridin-2-yl)-3-methoxy-1H-pyrazole-5-carboxamido)-N-(2-methoxyethyl)-5-methylpyrazolo[1,5-a]pyridine-7-carboxamide]
> 70%: all assays above

From patent US12024510B2, “Pyrazolopyridine-diamides, their use as insecticide and processes for preparing the same” (PI INDUSTRIES LTD., priority 2017, dated 2024)
